In patent publication US10227344B2, “CK2 inhibitors, compositions and methods thereof” (Polaris Pharmaceuticals, Inc., priority 2016, dated 2019):

Tests used:
Format in all cases: cell-based
PC3 = assay: Cancer cell panel, cell viability (resazurin): Prostate, PC3; settings: 72 hours, labelled drug combined with Example 3
LnCap = assay: Cancer cell panel, cell viability (resazurin): Prostate, LnCap; settings: 72 hours, labelled drug combined with Example 3
SKOV-3 = assay: Cancer cell panel, cell viability (resazurin): Ovarian, SKOV-3; settings: SKOV-3 (Ovarian), 72 hours; labelled drug combined with Example 3
Method: (§1) Cells were plated in 96-well plates and treated for 72 hours with a serially diluted CK2 inhibitor or anti-cancer drug or their combination. The suspension cell lines were treated right after plating, while the adherent cells were allowed to attach overnight prior to the start of the treatment.
(§2) Cell viability was determined by adding resazurin to cell cultures and measuring fluorescence with a plate reader. Relative cell viability was calculated by dividing the cell viability signal from a test sample by that of a non-treated control. […] Bliss Independence and Highest Single Agent models were used to determine if there is synergy, additivity or antagonism between the CK2 inhibitor and an anti-cancer drug.

A2780 = assay: Cancer cell panel, cell viability (resazurin): Ovarian, A2780; settings: 72 hours, labelled drug combined with Example 3
Caov-3 = assay: Cancer cell panel, cell viability (resazurin): Ovarian, Caov-3; settings: Caov-3 (Ovarian), 72 hours; labelled drug combined with Example 3
Mia-Paca-2 = assay: Cancer cell panel, cell viability (resazurin): Pancreatic, Mia-Paca-2; settings: Mia-Paca-2 (Pancreatic), 72 hours; labelled drug combined with Example 3
Panc-1 = assay: Cancer cell panel, cell viability (resazurin): Pancreatic, Panc-1; settings: Panc-1 (Pancreatic), 72 hours; labelled drug combined with Example 3
BxPC3 = assay: Cancer cell panel, cell viability (resazurin): Pancreatic, BxPC3; settings: 72 hours, labelled drug combined with Example 3
Method: as §1, §2

HCT116 = assay: Cancer cell panel, cell viability (resazurin): Colon, HCT116; settings: 72 hours, labelled drug combined with Example 3
Method: as §1, §2

Colo205 = assay: Cancer cell panel, cell viability (resazurin): Colon, Colo205; settings: 72 hours, labelled drug combined with Example 3
LoVo = assay: Cancer cell panel, cell viability (resazurin): Colon, LoVo; settings: 72 hours, labelled drug combined with Example 3
Method: as §1, §2

DLD-1 = assay: Cancer cell panel, cell viability (resazurin): Colon, DLD-1; settings: DLD-1 (Colon), 72 hours; labelled drug combined with Example 3
H1299 = assay: Cancer cell panel, cell viability (resazurin): NSCLC, H1299; settings: 72 hours, labelled drug combined with Example 3
A549 = assay: Cancer cell panel, cell viability (resazurin): NSCLC, A549; settings: 72 hours, labelled drug combined with Example 3
Method: as §1, §2

H460 = assay: Cancer cell panel, cell viability (resazurin): NSCLC, H460; settings: 72 hours, labelled drug combined with Example 3
H1975 = assay: Cancer cell panel, cell viability (resazurin): NSCLC, H1975; settings: 72 hours, labelled drug combined with Example 3
Method: as §1, §2

H23 = assay: Cancer cell panel, cell viability (resazurin): NSCLC, H23; settings: 72 hours, labelled drug combined with Example 3
H2122 = assay: Cancer cell panel, cell viability (resazurin): NSCLC, H2122; settings: 72 hours, labelled drug combined with Example 3
SkBr-3 = assay: Cancer cell panel, cell viability (resazurin): Breast, SkBr-3; settings: SkBr-3 (Breast), 72 hours; labelled drug combined with Example 3
Method: as §1, §2

MDA-MB-453 = assay: Cancer cell panel, cell viability (resazurin): Breast, MDA-MB-453; settings: MDA-MB-453 (Breast), 72 hours; labelled drug combined with Example 3
Method: as §1, §2

MDA-MB-231 = assay: Cancer cell panel, cell viability (resazurin): Breast, MDA-MB-231; settings: MDA-MB-231 (Breast), 72 hours; labelled drug combined with Example 3
MDA-MB-157 = assay: Cancer cell panel, cell viability (resazurin): Breast, MDA-MB-157; settings: MDA-MB-157 (Breast), 72 hours; labelled drug combined with Example 3
Method: as §1, §2

BT-20 = assay: Cancer cell panel, cell viability (resazurin): Breast, BT-20; settings: BT-20 (Breast), 72 hours; labelled drug combined with Example 3

Compound: Nc1ccn([C@@H]2O[C@H](CO)[C@@H](O)C2(F)F)c(=O)n1 [Gemcitabine, gemcitabine]
- synergy, additivity or antagonism of the combination of Example 3 with the anti-cancer drug (PC3): + (Additive relative to each agent alone (CI = 0.9-1 by Bliss Independence Model and <0.9 by Highest Single Agent Model))
- synergy, additivity or antagonism of the combination of Example 3 with the anti-cancer drug (LnCap): + (Additive relative to each agent alone (CI = 0.9-1 by Bliss Independence Model and <0.9 by Highest Single Agent Model))
- synergy, additivity or antagonism of the combination of Example 3 with the anti-cancer drug (SKOV-3): + + (Slight synergy relative to each agent alone (CI = 0.75-0.9 by Bliss Independence Model))
- synergy, additivity or antagonism of the combination of Example 3 with the anti-cancer drug (A2780): + + + (Synergy relative to each agent alone (CI = 0.4-0.74 by Bliss Independence Model))
- synergy, additivity or antagonism of the combination of Example 3 with the anti-cancer drug (Caov-3): + (Additive relative to each agent alone (CI = 0.9-1 by Bliss Independence Model and <0.9 by Highest Single Agent Model))
- synergy, additivity or antagonism of the combination of Example 3 with the anti-cancer drug (Mia-Paca-2): + + (Slight synergy relative to each agent alone (CI = 0.75-0.9 by Bliss Independence Model))
- synergy, additivity or antagonism of the combination of Example 3 with the anti-cancer drug (Panc-1): + (Additive relative to each agent alone (CI = 0.9-1 by Bliss Independence Model and <0.9 by Highest Single Agent Model))
- synergy, additivity or antagonism of the combination of Example 3 with the anti-cancer drug (BxPC3): + + + (Synergy relative to each agent alone (CI = 0.4-0.74 by Bliss Independence Model))
- synergy, additivity or antagonism of the combination of Example 3 with the anti-cancer drug (HCT116): + (Additive relative to each agent alone (CI = 0.9-1 by Bliss Independence Model and <0.9 by Highest Single Agent Model))
- synergy, additivity or antagonism of the combination of Example 3 with the anti-cancer drug (Colo205): + (Additive relative to each agent alone (CI = 0.9-1 by Bliss Independence Model and <0.9 by Highest Single Agent Model))
- synergy, additivity or antagonism of the combination of Example 3 with the anti-cancer drug (LoVo): + (Additive relative to each agent alone (CI = 0.9-1 by Bliss Independence Model and <0.9 by Highest Single Agent Model))
- synergy, additivity or antagonism of the combination of Example 3 with the anti-cancer drug (DLD-1): + (Additive relative to each agent alone (CI = 0.9-1 by Bliss Independence Model and <0.9 by Highest Single Agent Model))
- synergy, additivity or antagonism of the combination of Example 3 with the anti-cancer drug (H1299): + (Additive relative to each agent alone (CI = 0.9-1 by Bliss Independence Model and <0.9 by Highest Single Agent Model))
- synergy, additivity or antagonism of the combination of Example 3 with the anti-cancer drug (A549): + + + + (Strong synergy relative to each agent alone (CI < 0.4 by Bliss Independence Model))
- synergy, additivity or antagonism of the combination of Example 3 with the anti-cancer drug (H460): + + (Slight synergy relative to each agent alone (CI = 0.75-0.9 by Bliss Independence Model))
- synergy, additivity or antagonism of the combination of Example 3 with the anti-cancer drug (H1975): + (Additive relative to each agent alone (CI = 0.9-1 by Bliss Independence Model and <0.9 by Highest Single Agent Model))
- synergy, additivity or antagonism of the combination of Example 3 with the anti-cancer drug (H23): + (Additive relative to each agent alone (CI = 0.9-1 by Bliss Independence Model and <0.9 by Highest Single Agent Model))
- synergy, additivity or antagonism of the combination of Example 3 with the anti-cancer drug (H2122): + + (Slight synergy relative to each agent alone (CI = 0.75-0.9 by Bliss Independence Model))
- synergy, additivity or antagonism of the combination of Example 3 with the anti-cancer drug (SkBr-3): + (Additive relative to each agent alone (CI = 0.9-1 by Bliss Independence Model and <0.9 by Highest Single Agent Model))
- synergy, additivity or antagonism of the combination of Example 3 with the anti-cancer drug (MDA-MB-453): + + (Slight synergy relative to each agent alone (CI = 0.75-0.9 by Bliss Independence Model))
- synergy, additivity or antagonism of the combination of Example 3 with the anti-cancer drug (MDA-MB-231): + + (Slight synergy relative to each agent alone (CI = 0.75-0.9 by Bliss Independence Model))
- synergy, additivity or antagonism of the combination of Example 3 with the anti-cancer drug (MDA-MB-157): + + (Slight synergy relative to each agent alone (CI = 0.75-0.9 by Bliss Independence Model))
- synergy, additivity or antagonism of the combination of Example 3 with the anti-cancer drug (BT-20): + (Additive relative to each agent alone (CI = 0.9-1 by Bliss Independence Model and <0.9 by Highest Single Agent Model))
